This data set is described as follows: Stability to steam sterilization. The note with it: 121° C. at 1·10^5 Pa (1 atm) for 15 minutes.

The structures appear in SMILES notation.

Take `CCCCCCCCCCCCCCCC(=O)OC/C=C(C)/C=C/C=C(C)/C=C/C1=C(C)CCCC1(C)C` [Vitamin A Palmitate, Retinyl Palmitate]: the stability to sterilization result is recorded as “not stable”.

(Values after patent US20220304970A1, “LIPOSOMIAL EYE DROPS SOLUTION AND USES THEREOF FOR THE TREATMENT OF DRY EYE SYNDROME” (Dr. Rolf Lambert Pharma-Consulting GmbH, priority 2018, published 2022).)
